IC50 data for six molecules are collected here from ChEMBL document CHEMBL3886228, “Substituted benzopiperazines as CETP inhibitors” (2015).

Molecules are shown by their SMILES.

This assay concerns the target T1, Cholesteryl ester transfer protein (Homo sapiens, UniProt P11597).
T1 sequence (P11597 whole entry): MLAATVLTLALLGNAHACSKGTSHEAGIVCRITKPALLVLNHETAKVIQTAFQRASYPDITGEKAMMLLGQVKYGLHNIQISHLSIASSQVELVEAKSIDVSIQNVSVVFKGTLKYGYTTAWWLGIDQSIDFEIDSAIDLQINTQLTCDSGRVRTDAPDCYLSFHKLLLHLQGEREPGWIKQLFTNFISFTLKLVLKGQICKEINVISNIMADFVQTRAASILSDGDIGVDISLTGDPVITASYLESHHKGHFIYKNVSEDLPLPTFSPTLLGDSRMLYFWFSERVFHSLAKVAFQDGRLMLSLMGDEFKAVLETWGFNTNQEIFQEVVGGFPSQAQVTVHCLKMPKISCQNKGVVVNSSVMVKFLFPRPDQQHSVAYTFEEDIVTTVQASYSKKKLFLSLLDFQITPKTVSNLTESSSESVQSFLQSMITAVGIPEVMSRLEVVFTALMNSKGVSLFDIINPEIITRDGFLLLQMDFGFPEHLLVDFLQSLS
The assay can be described thus: Scintillation Proximity Assay (SPA): First, low density lipoprotein (LDL) (Meridian) was biotinylated by incubating LDL with biotin for 1 hour on ice, after which it was dialyzed to remove free biotin. Then compounds at varying concentrations were incubated with 15 nM CETP (reagent production group, In Vitro Pharmacology, MRL Rahway) and 50 ug/ml of the biotinylated LDL in 50 mM HEPES, 150 mM NaCl, pH 7.4, for 1 hour at 37° C. The reaction was started by adding 3H-cholesterol ester high density lipoprotein (HDL) (American Radiochemicals Corp) at a concentration of ~0.6 nM. The reaction proceeded for 2 hours at 37° C., after which time it was quenched by the addition of 12% acetic acid. PVT streptavadin-coated scintillation proximity beads, which had been brought to room temperature, were then added at a concentration of 4 mg/ml. The assay was then mixed and counted after one half hour in a Microbeta plate reader. (SPA uses beads or plates that emit light when radiolabelled molecules are held near them.)

In turn, `COc1cccc(CN2C[C@@H](c3cccc(C(F)(F)F)c3)N(C[C@@H](O)C(F)(F)F)c3ccccc32)n1` registered a concentration for half-maximal inhibition (IC50) of 630 nM.
The figure for `Cc1cc(CN2C[C@@H](c3cccc(C(F)(F)F)c3)N(C[C@@H](O)C(F)(F)F)c3ccccc32)cc(Cl)n1` is 67 nM; for `COc1cccnc1CN1C[C@@H](c2cccc(C(F)(F)F)c2)N(C[C@@H](O)C(F)(F)F)c2ccccc21` it is 210 nM; for `CC(C)Oc1cccc(CN2C[C@@H](c3cccc(C(F)(F)F)c3)N(C[C@@H](O)C(F)(F)F)c3ccccc32)n1` it is 750 nM.
Regarding `CCOc1cccc(CN2C[C@@H](c3cccc(C(F)(F)F)c3)N(C[C@@H](O)C(F)(F)F)c3ccccc32)n1`, it took 310 nM to reach half-maximal inhibition (IC50).
As for `O[C@H](CN1c2ccccc2N(Cc2cccc(OC(F)(F)F)c2)C[C@H]1c1cccc2ccccc12)C(F)(F)F`, the midpoint of inhibition, the IC50, lay at 1430 nM.

By IC50 is commonly meant the concentration needed to halve the response being measured. High values mean lower potency, low ones higher potency.
